Reference: PubChem BioAssay AID1963969 (Molecular Pharmacology Branch, DTP, NCI, 2024)

Test system: 817829-284-R-J1-PDC multi-cell spheroid viability
Test: Anticancer human tumor 817829-284-R-J1-PDC patient-derived colon adenocarcinoma cell line growth inhibition [PI3K]
Settings: for IC50: curve of first compound; for viability, T/C: stronger effect = lower value
How it was run: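 Stroma-containing spheroids: tumor line, pooled-donor HUVEC, hMSC. Treatments: targeted agents with PI3K inhibitors. Dosing: clinically relevant, half-log spacing, 10 microM ceiling without known Cmax. Read-out: cell viability.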
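Also: spheroids exposed to agents for seven days before readout.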
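For viability, T/C in this document: percent of vehicle DMSO control viability which is 100%.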

Structure (SMILES): C[C@@H](NC(=O)c1ncnc(N)c1Cl)c1ncc(C(=O)Nc2cc(C(F)(F)F)c(Cl)cn2)s1 + Cc1nc(NC(=O)N2CCCC2C(N)=O)sc1-c1ccnc(C(C)(C)C(F)(F)F)c1
- IC50 (second compound 0.0316 µM): > 10 µM
- IC50 (second compound 0.1 µM): > 10 µM
- IC50 (second compound 0.316 µM): > 10 µM
- IC50 (second compound 1 µM): > 10 µM
- IC50 (second compound 3.16 µM): > 10 µM
- IC50 (second compound 10 µM): < 0.0316 µM
- viability, T/C (second compound 0.0316 µM, first compound 0.0316 µM): 106%
- viability, T/C (second compound 0.0316 µM, first compound 0.1 µM): 74.4%
- viability, T/C (second compound 0.0316 µM, first compound 0.316 µM): 71.9%
- viability, T/C (second compound 0.0316 µM, first compound 1 µM): 68.5%
- viability, T/C (second compound 0.0316 µM, first compound 3.16 µM): 96.3%
- viability, T/C (second compound 0.0316 µM, first compound 10 µM): 88.2%
- viability, T/C (second compound 0.1 µM, first compound 0.0316 µM): 77.5%
- viability, T/C (second compound 0.1 µM, first compound 0.1 µM): 86.3%
- viability, T/C (second compound 0.1 µM, first compound 0.316 µM): 81.1%
- viability, T/C (second compound 0.1 µM, first compound 1 µM): 72.4%
- viability, T/C (second compound 0.1 µM, first compound 3.16 µM): 70.7%
- viability, T/C (second compound 0.1 µM, first compound 10 µM): 83%
- viability, T/C (second compound 0.316 µM, first compound 0.0316 µM): 79.8%
- viability, T/C (second compound 0.316 µM, first compound 0.1 µM): 85.9%
- viability, T/C (second compound 0.316 µM, first compound 0.316 µM): 61.9%
- viability, T/C (second compound 0.316 µM, first compound 1 µM): 59.4%
- viability, T/C (second compound 0.316 µM, first compound 3.16 µM): 80.7%
- viability, T/C (second compound 0.316 µM, first compound 10 µM): 65.6%
- viability, T/C (second compound 1 µM, first compound 0.0316 µM): 56%
- viability, T/C (second compound 1 µM, first compound 0.1 µM): 86.5%
- viability, T/C (second compound 1 µM, first compound 0.316 µM): 74.9%
- viability, T/C (second compound 1 µM, first compound 1 µM): 96.6%
- viability, T/C (second compound 1 µM, first compound 3.16 µM): 61.9%
- viability, T/C (second compound 1 µM, first compound 10 µM): 93.9%
- viability, T/C (second compound 3.16 µM, first compound 0.0316 µM): 73.8%
- viability, T/C (second compound 3.16 µM, first compound 0.1 µM): 53.8%
- viability, T/C (second compound 3.16 µM, first compound 0.316 µM): 70.5%
- viability, T/C (second compound 3.16 µM, first compound 1 µM): 84.8%
- viability, T/C (second compound 3.16 µM, first compound 3.16 µM): 102%
- viability, T/C (second compound 3.16 µM, first compound 10 µM): 74.5%
- viability, T/C (second compound 10 µM, first compound 0.0316 µM): 45.7%
- viability, T/C (second compound 10 µM, first compound 0.1 µM): 31.2%
- viability, T/C (second compound 10 µM, first compound 0.316 µM): 61.7%
- viability, T/C (second compound 10 µM, first compound 1 µM): 54.3%
- viability, T/C (second compound 10 µM, first compound 3.16 µM): 94.9%
- viability, T/C (second compound 10 µM, first compound 10 µM): 42.3%
